The supplement of paper PMC13380429

Experiments:
Settings in all cases: 72 h
Calu-3 [1] = test: cell viability relative to DMSO; higher = less toxic
U2OS [2] = test: as above
Caco-2 [3] = test: as above
Vero E6 [4] = test: as above
Calu-3 [5] = test: relative viability EC50 (midpoint between 100% and the lowest measured viability); higher = less toxic
U2OS [6] = test: as above
Caco-2 [7] = test: as above
Vero E6 [8] = test: as above
Calu-3 [9] = test: drug sensitivity score (DSS) for viability; higher = more toxic; extreme values may be limits of the assay
U2OS [10] = test: as above
Caco-2 [11] = test: as above
Vero E6 [12] = test: as above
HepG2 [13] = test: cell viability relative to DMSO; higher = less toxic
HepG2 [14] = test: drug sensitivity score (DSS) for viability; higher = more toxic; extreme values may be limits of the assay

SMILES | cell viability (Calu-3 [1]; 1 nM) [%] | cell viability (Calu-3 [1]; 10 nM) [%] | cell viability (Calu-3 [1]; 100 nM) [%] | cell viability (Calu-3 [1]; 1000 nM) [%] | cell viability (Calu-3 [1]; 10000 nM) [%] | cell viability (U2OS [2]; 1 nM) [%] | cell viability (U2OS [2]; 10 nM) [%] | cell viability (U2OS [2]; 100 nM) [%] | cell viability (U2OS [2]; 1000 nM) [%] | cell viability (U2OS [2]; 10000 nM) [%] | cell viability (Caco-2 [3]; 1 nM) [%] | cell viability (Caco-2 [3]; 10 nM) [%] | cell viability (Caco-2 [3]; 100 nM) [%] | cell viability (Caco-2 [3]; 1000 nM) [%] | cell viability (Caco-2 [3]; 10000 nM) [%] | cell viability (Vero E6 [4]; 1 nM) [%] | cell viability (Vero E6 [4]; 10 nM) [%] | cell viability (Vero E6 [4]; 100 nM) [%] | cell viability (Vero E6 [4]; 1000 nM) [%] | cell viability (Vero E6 [4]; 10000 nM) [%] | relative viability EC50 (Calu-3 [5]) [µM] | relative viability EC50 (U2OS [6]) [µM] | relative viability EC50 (Caco-2 [7]) [µM] | relative viability EC50 (Vero E6 [8]) [µM] | drug sensitivity score (Calu-3 [9]) | drug sensitivity score (U2OS [10]) | drug sensitivity score (Caco-2 [11]) | drug sensitivity score (Vero E6 [12]) | cell viability (HepG2 [13]; 1 nM) [%] | cell viability (HepG2 [13]; 10 nM) [%] | cell viability (HepG2 [13]; 100 nM) [%] | cell viability (HepG2 [13]; 1000 nM) [%] | cell viability (HepG2 [13]; 10000 nM) [%] | drug sensitivity score (HepG2 [14])
Cc1ccccc1NC(=O)Nc1ccc(CC(=O)N(C)[C@@H](CC(C)C)C(=O)NCC[C@H](NC(=O)[C@@H]2CCCN2S(=O)(=O)c2cc(Cl)cc(Cl)c2)C(=O)O)cc1 [BIO-5192] | 104 | 102 | 96.5 | 108 | 104 | 102 | 96.2 | 95.1 | 105 | 97.6 | 98 | 97.3 | 90.5 | 99.5 | 96.8 | 98.3 | 93.9 | 93.1 | 96.7 | 109 | > 10 | > 10 | > 10 | > 10 | 0 | 0 | 0 | 0 | – | – | – | – | – | –
COc1ccccc1N1CCN(CCCCN2C(=O)CCC2=O)CC1 [MM77] | 104 | 100 | 96.6 | 114 | 107 | 100 | 101 | 94.9 | 106 | 97.2 | 92.4 | 102 | 83.8 | 102 | 106 | 94.5 | 93.4 | 92.7 | 94 | 110 | > 10 | > 10 | > 10 | > 10 | 0 | 0 | 0 | 0 | – | – | – | – | – | –
CNC(=O)[C@H]1O[C@@H](n2cnc3c(NCc4cccc(I)c4)ncnc32)[C@H](O)[C@@H]1O [IB-MECA] | 96.3 | 98.3 | 93.4 | 109 | 85.3 | 101 | 105 | 102 | 106 | 95.8 | 112 | 96.2 | 99.8 | 105 | 93.3 | 103 | 97.1 | 99.8 | 97 | 102 | > 10 | > 10 | > 10 | > 10 | 0.1 | 0 | 0 | 0 | 107 | 68.7 | 98.3 | 68.8 | 88.8 | 3.3
CC/C(=C(\c1ccccc1)c1ccc(OCCN(C)C)cc1)c1ccccc1 [tamoxifen] | 103 | 95.5 | 94.7 | 86 | 52.7 | 94.6 | 102 | 93 | 97.2 | 87.6 | – | – | – | – | – | 98.9 | 90 | 93.3 | 86.9 | 58.9 | – | > 10 | – | – | 4.2 | 0 | – | 3.4 | 105 | 106 | 105 | 102 | 73.3 | 0.9
